Laboratory results from article PMC6533572, “Elucidation of the Differences in Cinobufotalin’s Pharmacokinetics Between Normal and Diethylnitrosamine-Injured Rats: The Role of P-Glycoprotein” (Frontiers in Pharmacology, 2019).
“And” between values parts separate entries of the source, which are not always exact repeats. Equal values may be shown once. Read-outs that look alike come from different tables or passages of the source.

Columns and labels:
[1] = Pharmacokinetic study after i.v. injection in normal and DEN-injured rats; format: in vivo, Sprague Dawley rats; conditions: i.v. 2.5 mg/kg, two-compartment model; for AUC / C0 / clearance / half-life: male, Sprague Dawley, rat, plasma, iv; for half-life: read-out: t1/2β (converted)
Experimental: Male Sprague Dawley rats (200–220 g), used for pharmacokinetic (PK) studies, were purchased from Beijing Vital River Laboratory Animal Technology Co., Ltd. (Beijing, China). All animals were housed under standardized condition (12 h light/dark schedule), and they were kept 1 week prior to experiments for acclimation. All animal experiments were carried out in accordance with the National Institutes of Health guide for the care and use of Laboratory animals (NIH Publications No. 8023, revised 1978) and were approved by the Medical and Research Ethics Committee of College of Medicine, Henan University.
For PK studies, the rats were randomly divided into two experimental groups (10 rats for normal rats group and 20 rats for DEN-injured rats group, considering the animal casualties during the modeling process). HCC rat model was established by intraperitoneal administration of 50 mg/kg DEN two times per week ([Fuchs et al., 2014]), and the control group rats were treated with normal saline in the same way. After 14 weeks of administration, three rats were randomly selected and anesthetized by anesthesia cocktail (Ketamine 50 mg/mL, Xylazine 3.3 mg/mL and Acetopromazine 3.3 mg/mL). Then the liver was taken out and photographed to determine whether the animal model was successfully constructed.
Before PK experiment, a cannula was introduced into the jugular vein of the anesthetized rat and administrated carprofen subcutaneously after the surgery. After observation for 24 h, when the activity and excretion of rats were normal, rats were dosed with cinobufotalin at 2.5 mg/kg through jugular vein cannula. Blood samples (200 μL) were withdrawn at each pointed time (5, 10, 15, 30, 45 min, and 1, 1.5, 2, 4, 6, 8, 12, and 24 h) after dosing, and whole blood was transferred into tubes pre-treated with heparin (1000 U/mL). Then an equal volume of saline was injected into rats through jugular vein cannula immediately. The blood samples were immediately centrifuged at 4°C (8000 g, 10 min) to obtain the plasma, and the plasma samples were stored at -80°C until analysis. After sampling at the last time point, all rats were anesthetized immediately. Blood was washed out with ice-cold saline through the hepatic portal vein, and then liver tissues were removed, weighed and stored at -80°C until analysis.
Hundred microliter of plasma was transferred to a new clean tube, and samples were treated with protein precipitation assay as described in Preparation of rat plasma samples section. Then calibration curve was prepared to quantify the amount of cinobufotalin in plasma samples according to the steps as described in method validation part.
PK and statistical data analyses were performed using WinNonlin 3.3. The two-compartment model (two-compartment i.v.-Bolus, macro-constants, no lag time, first order elimination, Figure 2) was selected to obtain the PK parameters of cinobufotalin in rats. The model equation was as followed:
(3) C(t)=A∗EXP(−Alpha∗t)+B∗EXP(−Beta∗t)

MDCK II cells = assay: Cellular uptake (intracellular accumulation) in MDCK II cells; format: in vitro ADME, canine; conditions: verapamil 100 μM, 2 h
Experimental: Madin Darby canine kidney (MDCK II) cells stably transfected with multidrug resistance 1 gene (MDCK-MDR1 cells) were conducted and used in cinobufotalin uptake studies. Wild type MDCK II or MDCK-MDR1 cells were seeded into six-well plates at the destiny of 2 × 10^5 cells/well and maintained at 37°C under 5% CO2 in DMEM with 10% FBS. The well-known P-gp inhibitor, verapamil (100 μM), was used as the positive control to evaluate the effect of P-gp on cinobufotalin uptake ([Bicker et al., 2017]).
The uptake experiment was performed when the cells reached 100% confluency. First, cells were washed three times using 37°C Hanks’ balanced salt solution (HBSS) buffer (pH = 7.2). Then, 2 mL HBSS (37°C, pH = 7.2) buffer containing cinobufotalin (5 and 20 μM) were added and incubated with cells in the absence or presence of potential P-gp inhibitors, verapamil (100 μM). After incubation for 2 h, the incubation medium was removed, and cells were washed three times using ice-cold HBSS buffer. Then 400 μL of ice-cold MeOH:H2O (1:1, v/v) were added into each well, the cells were collected and sonicated for 15 min in ice-cold water. The mixture was centrifuged at 4°C (12,000 g, 10 min), and the supernatant was subjected to UPLC-QTOF/MS for analyses.

Huh-7 cells = assay: Cell viability CCK-8 assay, Huh-7 cells; format: cell-based; conditions: Homo sapiens, 40 nM, 60 nM and 80 nM, 24 h, read-out: inhibition of Huh-7 cells growth (CCK-8)
Experimental: Hepatocellular cancer cells (HepG2 and Huh-7) were purchased from the cell bank of the Chinese Academy of Science (Shanghai, China). These cells were cultured in Dulbecco’s modified Eagle’s medium (DMEM) containing 10% fetal bovine serum (FBS), penicillin (100 units/mL) and streptomycin (100 units/mL) in a humidified atmosphere with 5% CO2 at 37 °C.
Furthermore, the effect of cinobufotalin at 40, 60, 80 nM on hepatocellular cancer cells (HepG2 and Huh-7 cells) viability was conducted using Cell Counting Kit - 8 (CCK-8) assay (Sigma-Aldrich, St Louis, MO). In brief, cells were seeded into 96-well plates at 5 × 10^3 cells/well and cultured for 24 h in DMEM medium as described in 1.1 section. Then various concentrations of cinobufotalin (40, 60, 80 nM) were added into cells. After 24 h treatment, 10 μL of CCK-8 solution was added into every well of the plate. The plate was incubated in the incubator for other 4 h, and then the absorbance was measured at 450 nm using a microplate reader (Thermo Scientific, Rockford, IL). The cell viability was calculated by the formula: cell viability (100%) = (OD value of the treated wells - OD value of the blank control wells) / (OD value of the negative control wells - OD value of the blank control wells).

**Q.** Which CL2 ([1]; DEN-injured rats) does the source give for `CC(=O)O[C@H]1[C@H]2O[C@]23[C@@H]2CC[C@]4(O)C[C@@H](O)CC[C@]4(C)[C@H]2CC[C@]3(C)[C@H]1c1ccc(=O)oc1` [Cinobufotalin] here?
**A.** 135 ± 28.3 mL/min/kg

**Q.** And the K10 ([1]; DEN-injured rats)?
**A.** 1.0 ± 0.3^* 1/h

**Q.** What about the K21 ([1]; DEN-injured rats) of the same molecule?
**A.** 0.3 ± 0.1 h⁻¹

**Q.** And the V ([1]; DEN-injured rats)?
**A.** 2.4 ± 0.6 L/kg

**Q.** What about the V2 ([1]; DEN-injured rats) of the same molecule?
**A.** 31.5 ± 10.4 L/kg

**Q.** And the K12 ([1]; DEN-injured rats, 2.5 mg/kg)?
**A.** 3.2 ± 0.8 h⁻¹

**Q.** And the t1/2α ([1]; DEN-injured rats, 2.5 mg/kg)?
**A.** 0.2 ± 0.1 h

**Q.** And the AUC ([1]; 2.5 mg/kg, DEN-injured rats)?
**A.** 1100 ± 300 ng·h/mL

**Q.** What about the C0 ([1]; 2.5 mg/kg, DEN-injured rats) of the same molecule?
**A.** 1100 ± 300 ng/mL

**Q.** And the clearance ([1]; 2.5 mg/kg, DEN-injured rats)?
**A.** 40 mL/min/kg

**Q.** And the half-life ([1]; 2.5 mg/kg, DEN-injured rats)?
**A.** 13.4 ± 5.8 h

**Q.** And the AUC ([1]; 2.5 mg/kg, normal rats)?
**A.** 2600 ± 500 ng·h/mL

**Q.** And the C0 ([1]; 2.5 mg/kg, normal rats)?
**A.** 1400 ± 400 ng/mL

**Q.** What about the clearance ([1]; 2.5 mg/kg, normal rats) of the same molecule?
**A.** 16.7 mL/min/kg

**Q.** And the half-life ([1]; 2.5 mg/kg, normal rats)?
**A.** 13.2 ± 1.3 h

**Q.** And the CL2 ([1]; normal rats)?
**A.** 55 ± 6.7 mL/min/kg

**Q.** What about the K10 ([1]; normal rats) of the same molecule?
**A.** 0.5 ± 0.2 h⁻¹

**Q.** And the K21 ([1]; normal rats)?
**A.** 0.3 ± 0 h⁻¹

**Q.** And the V ([1]; normal rats)?
**A.** 2.1 ± 0.6 L/kg

**Q.** What about the V2 ([1]; normal rats) of the same molecule?
**A.** 13.1 ± 1.3 L/kg

**Q.** And the t1/2α ([1]; normal rats)?
**A.** 0.3 ± 0.1 h

**Q.** What about the K12 ([1]; normal rats, 2.5 mg/kg) of the same molecule?
**A.** 1.8 ± 0.5 h⁻¹ and 1.8 ± 0.8 h⁻¹

**Q.** And the “effect of verapamil on the intracellular accumulation of cinobufotalin” value (MDCK II cells)?
**A.** did not alter

**Q.** What about the inhibition at 0.04 µM (Huh-7 cells) of the same molecule?
**A.** < 15%
